Results taken from US9468225B2, “Oral compositions” (Symrise AG, priority 2013, dated 2016).

Assays:
[1] = tested on: human neuroblastoma cells (SH-SY5Y); experiment: Serotonin release by SH-SY5Y cells after 3-minute stimulation with alkamides (Serotonin-ELISA, normalized to DNA); type: cell-based; conditions: for Serotonin release T/C [%]: relative to EtOH control, 3 min stimulation
Protocol: (§1) The cell model used for the release of the neurotransmitters dopamine and serotonin are human neuroblastoma cells (SH-SY5Y, ATCC Number CRL-2266). Cultivation is performed at 37° C. and with a 5% CO2 content using a mixture containing at equal parts Eagle's Minimum Essential Medium (MEM) and F12 Medium (each having 10% FBS and 1% Penicillin/Streptomycin). To measure the release of dopamine and serotonin, the cells are harvested with trypsin and seeded, after a vitality check using trypan blue tests, in a defined cell number in 35 mm cell culture dishes.
After a 3-minute stimulation of 1.25*10^6 human neuroblastoma cells (SH-SY5Y) with 300 μL Krebs-Ringer-HEPES buffer, 0.1% ascorbic acid, pH 6.2, with, or without, the addition of an alkamide (trans-Pellitorine, dihydropellitorine, spilanthol, wherein when adding the alkamide in concentrations of 0.001 μM, 0.1 μM 1 μM and 10 μM within the Krebs-Ringer-HEPES buffer is adjusted), the serotonin content is detected by means of an enzyme-based method of detection (Serotonin-ELISA sensitive, DLD Diagnostica, Hamburg, Germany). The cells are lysed with a buffer containing sodium lauryl sarcosinate and the DNA content is detected by means of a NanoQuant plate (Tecan, Ménnendorf, Switzerland) to normalize serotonin release.
FIGS. 1a and 1b represent the release of serotonin after incubation with t-pellitorine (2) (FIG. 1A) in concentrations of 0.001 μM, 0.1 μM, 1 μM and 10 μM or other alkamides (FIG. 1B: 1=t-pellitorine, 2=dihydropellitorine, 3=spilanthol)). Results are represented in % relative to control (buffer with 0.1% ethanol) n=3, tR=2. Significant differences of control treatment were tested using a one-way ANOVA with a subsequent Holm-Sidak post hoc test and marked according to the following pattern: *p≦0.05; **p.≦0.01; ***p≦0.001.

3T3-L1 cells [2] = experiment: Long time lipid accumulation (Oil-Red O) in 3T3-L1 adipocytes; type: cell-based, murine; conditions: 10 days treatment, vs ethanol control
Protocol: The cell model used for short-term uptake of free fatty acids and long-term lipid accumulation in the adipocytes are murine fibroblasts (3T3-L1, ATTC Number CL-173) after the cells differentiated to form adipocytes. 3T3-L1 fibroblasts are cultivated at 37° C. and a 5% CO2 content with Dulbecco's Modified Eagle Medium (DMEM) having 10% FBS, 4% L-Glutamin and 1% Penicillin/Streptomycin (=basal medium). Adipocyte differentiation occurs two days after reaching confluence by adding 10 μg/L Insulin, 1 μM dexamethasone and 0.5 mM Isobutylmethylxanthin into the culture medium (=differentiation medium). After two days of cultivation in differentiation medium the adipocytes are allowed to mature for two further days by adding 10 μg/L insulin into the culture medium (=maturation medium). After having spent between three and five days in basal medium, the adipocytes are optimally differentiated and show by inclusion of lipid droplets the phenotype that is typical for adipocytes. Human colon cell line CaCo-2 (ATCC Number HTB-37) is used as a cell model for the uptake of free fatty acids by the small intestine after they have differentiated to form a phenotype corresponding to enterocytes. CaCo-2 cells are cultivated at 37° C. with a 5% CO2 content with Dulbecco's Modified Eagle Medium (DMEM) with 10% FBS, 2% L-glutamin and 1% penicillin/streptomycin. Enterocyte differentiation is performed by cultivating the cells in a period of 18 days after they reach confluence. After differentiation of the 3T3-L1 fibroblasts to form adipocytes the cells are treated for 10 days with trans-pellitorine in concentrations of 0.001 μM, μM 0.1 μM, 1 μM and 10 μM and a final concentration of 10 μg/L insulin. […] The dye Oil-Red 0 is subsequently removed by means of 100% isopropanol, and absorption of the Oil-Red 0 solution, which behaves proportionally to the lipid droplets of the cells, was determined by means of a microplate reading device (Tecan, Ménnendorf, Switzerland). […]

3T3-L1 cells [3] = experiment: Fatty acid uptake (BODIPY fatty acid) in 3T3-L1 adipocytes; type: cell-based, murine; conditions: for Fatty acid uptake T/C [%]: 30 min preincubation, area below the curve over 60 min vs ethanol control
Protocol: (§2) The cell model used for short-term uptake of free fatty acids and long-term lipid accumulation in the adipocytes are murine fibroblasts (3T3-L1, ATTC Number CL-173) after the cells differentiated to form adipocytes. 3T3-L1 fibroblasts are cultivated at 37° C. and a 5% CO2 content with Dulbecco's Modified Eagle Medium (DMEM) having 10% FBS, 4% L-Glutamin and 1% Penicillin/Streptomycin (=basal medium). Adipocyte differentiation occurs two days after reaching confluence by adding 10 μg/L Insulin, 1 μM dexamethasone and 0.5 mM Isobutylmethylxanthin into the culture medium (=differentiation medium). After two days of cultivation in differentiation medium the adipocytes are allowed to mature for two further days by adding 10 μg/L insulin into the culture medium (=maturation medium). After having spent between three and five days in basal medium, the adipocytes are optimally differentiated and show by inclusion of lipid droplets the phenotype that is typical for adipocytes. Human colon cell line CaCo-2 (ATCC Number HTB-37) is used as a cell model for the uptake of free fatty acids by the small intestine after they have differentiated to form a phenotype corresponding to enterocytes. CaCo-2 cells are cultivated at 37° C. with a 5% CO2 content with Dulbecco's Modified Eagle Medium (DMEM) with 10% FBS, 2% L-glutamin and 1% penicillin/streptomycin. Enterocyte differentiation is performed by cultivating the cells in a period of 18 days after they reach confluence.
After differentiation of 3T3-L1 fibroblasts to form adipocytes, 65000 cells per well are seeded in a 96 well plate and incubated at 37° C. for four hours with basal medium (DMEM+10% fetal bovine serum) and then incubated for an hour with serum-free medium. The cells were pre-treated with 0.1 μM, 1 μM and 10 μM t-pellitorine for 30 minutes. The uptake of free fatty acids into the cells was measured by means of the fluorescence-marked fatty acid BODIPY® (QBT Fatty Acid Uptake Corporation, Germany) with a fluorescence microplate reading device (Tecan, Ménnendorf, Switzerland) every 20 seconds for a period of 60 minutes.
The results are represented as an area below the curve after measuring of 60 minutes in comparison with control (1, buffer with 0.1% Ethanol). n=3, tR=2-3. Significant differences between the treatment and control were tested by means of an one-way ANOVA followed by a Holm-Sidak post hoc test and marked according to the following pattern: *p≦0.05; **p.≦0.01; ***p≦0.001

[4] = tested on: human neuroblastoma cells (SH-SY5Y); experiment: Dopamine release by SH-SY5Y cells after 3-minute stimulation with trans-pellitorine (Dopamin-ELISA, normalized to DNA); type: cell-based; conditions: for Dopamine release T/C [%]: relative to EtOH control, 3 min stimulation
Protocol: as §1
After a 3-minute stimulation of 1.25*10^6 of human neuroblastoma cells (SH-SY5Y) with 350 μL Krebs-Ringer-HEPES Puffer (1), pH 5, with or without the addition of trans-pellitorine (2) in concentrations of 0.001 μM, 0.1 μM, 1 μM and 10 μM the supernatant is acidified with 1 N HCl and the dopamine content is determined by means of an enzyme-based method of detection (Dopamin-ELISA, DLD Diagnostica, Hamburg, Germany). The cells are lysed with a buffer containing sodium lauryl sarcosinate and the DNAN content is determined by means of a NanoQuant plant (Tecan, Ménnendorf, Switzerland) for normalization of dopamine release. During an ethanol control (EtOH control) no trans-pellitorine is added to the Krebs-Ringer-HEPES buffer, but ethanol is added to the buffer such that a 0.1% ethanolic Krebs-Ringer-HEPES buffer solution is obtained.
FIG. 2 represents the release of dopamin after incubation with t-pellitorine (2) in concentrations of 0.001 μM, 0.1 μM, 1 μM and 10 μM. The results are represented in a […] expressed in percent (buffer with 0.1% ethanol). n=3, tR=2. Significant differences between the treatments and control were tested using a one-way ANOVA with a subsequent Holm-Sidak post hoc test and marked according to the following pattern: *p≦0.05; **p.≦0.01; ***p≦0.001.

[5] = tested on: differentiated CaCo-2 cells; experiment: Fatty acid uptake (BODIPY fatty acid) in differentiated CaCo-2 cells; type: cell-based, human; conditions: for Fatty acid uptake T/C [%]: 30 min preincubation, area below the curve over 60 min vs ethanol control
Protocol: as §2, with “confluence. After differentiation of the CaCo-2 cells to form an enterocyte phenotype, the cells are incubated with serum-free medium for an hour. Subsequently the cells are pre-treated with 0.1 μM, 1 μM and 10 μM t-pellitorine for 30 minutes and the free fatty acid uptake into the cells was measured by means of the fluorescence marked fatty acid BODIPY® (QBT Fatty Acid Up-take Corporation, Germany) at a fluorescence microplate reading device (Tecan, Ménnendorf, Switzerland) every 20 seconds for a period of 60 minutes. […] The results are represented as an area below the curve after measuring for 60 minutes in comparison to control (1, buffer with 0.1% ethanol). n=3, tR=2-3. Significant differences between the treatment and control were tested by means of a one-way ANOVA followed by a Holm-Sidak post hoc test and marked according to the following pattern: *p≦0.05; **p.≦0.01; ***p≦0.001” for “confluence.”

## CCCCCCC/C=C/C(=O)NCC(C)C [Dihydropellitorine, 2E-decenoic acid-N-isobutylamide]
[1]; 0.001 μM
  Serotonin release T/C [%]: 140.9%
[1]; 0.1 μM
  Serotonin release T/C [%]: 87.41%
[1]; 1 μM
  Serotonin release T/C [%]: 124.3%
[1]; 10 μM
  Serotonin release T/C [%]: 144.5%

## CCCCC/C=C/C=C/C(=O)NCC(C)C [trans-pellitorine, 2E,4E-decadienic acid-N-isobutylamide]
3T3-L1 cells [2]; 0.001 μM
  Lipid accumulation T/C [%]: 94.60%
3T3-L1 cells [2]; 0.1 μM
  Lipid accumulation T/C [%]: 92.94%
3T3-L1 cells [2]; 1 μM
  Lipid accumulation T/C [%]: 93.46%
3T3-L1 cells [3]; 0.1 μM
  Fatty acid uptake T/C [%]: 93.84%
3T3-L1 cells [3]; 1 μM
  Fatty acid uptake T/C [%]: 96.63%
3T3-L1 cells [3]; 10 μM
  Fatty acid uptake T/C [%]: 91.95%
3T3-L1 cells [3]; preincubation with 10 μM
  reduction of fatty acid uptake in adipocytes: 9%
[4]; 0.001 μM
  Dopamine release T/C [%]: 99.68%
[4]; 0.1 μM
  Dopamine release T/C [%]: 182.7%
[4]; 100 nM, SH-SY5Y cells
  increase of dopamine release: 80%
[4]; 1 μM
  Dopamine release T/C [%]: 106.8%
[4]; 10 μM
  Dopamine release T/C [%]: 127.3%
[5]; 0.1 μM
  Fatty acid uptake T/C [%]: 107.8%
[5]; 1 μM
  Fatty acid uptake T/C [%]: 98.7%
[5]; 10 μM
  Fatty acid uptake T/C [%]: 97.8%
[5]; 100 μM
  Fatty acid uptake T/C [%]: 86.0%
[5]; preincubation with 100 μM, 30 minutes
  reduction of free fatty acid uptake in an enterocyte model: 14%
[1]; 0.001 μM
  Serotonin release T/C [%]: 105.3%
[1]; 0.1 μM
  Serotonin release T/C [%]: 140.2%
[1]; 100 nM, SH-SY5Y cells
  increase of the release of serotonin: 40%
[1]; 1 μM
  Serotonin release T/C [%]: 128.8%
[1]; 10 μM
  Serotonin release T/C [%]: 93.02%

## C/C=C/C=C\CC/C=C/C(=O)NCC(C)C [Spilanthol, 2E,6Z,8E-decatrienoic acid N-isobutylamide]
[1]; 0.001 μM
  Serotonin release T/C [%]: 105.6%
[1]; 0.1 μM
  Serotonin release T/C [%]: 129.9%
[1]; 1 μM
  Serotonin release T/C [%]: 103.8%
[1]; 10 μM
  Serotonin release T/C [%]: 91.77%
